Values of other authors in patent US11185497B2, “Intranasal delivery of dihydroergotamine by precision olfactory device” (Impel Neuropharma, Inc., priority 2018, dated 2021).

Settings: in vivo

**Q.** Which oral bioavailability does the source give for `CN1C[C@H](C(=O)N[C@]2(C)O[C@@]3(O)[C@@H]4CCCN4C(=O)[C@H](Cc4ccccc4)N3C2=O)C[C@@H]2c3cccc4[nH]cc(c34)C[C@H]21` [DHE, Dihydroergotamine] here?
**A.** Its oral bioavailability is “poor”.
